Reference: PMC10570959 (The Journal of Biological Chemistry, 2023)

Experiments:
[1] = In vitro metabolic stability in human liver microsomes; format: in vitro ADME; details: 5 μM compound, 400 μg/ml HLM, 37 °C, timepoints 0, 30, 60 min; result in words
[2] = system: RmNMT; format: biochemical, Rhinella marina; details: for Higher conversion of substrate by RmNMT compared with OcINMT: from Table 1 activities
[3] = system: MAO-A; details: rat liver mitochondria; result in words; cited from earlier work
[4] = target: T1, 5-HT1A receptor (Homo sapiens, UniProt P08908); assay: Radioligand competition assay; format: binding; details: 0.5 nM [3H]8-hydroxy-DPAT; mean ± SD of three independent replicates
T1 sequence (P08908 1-422): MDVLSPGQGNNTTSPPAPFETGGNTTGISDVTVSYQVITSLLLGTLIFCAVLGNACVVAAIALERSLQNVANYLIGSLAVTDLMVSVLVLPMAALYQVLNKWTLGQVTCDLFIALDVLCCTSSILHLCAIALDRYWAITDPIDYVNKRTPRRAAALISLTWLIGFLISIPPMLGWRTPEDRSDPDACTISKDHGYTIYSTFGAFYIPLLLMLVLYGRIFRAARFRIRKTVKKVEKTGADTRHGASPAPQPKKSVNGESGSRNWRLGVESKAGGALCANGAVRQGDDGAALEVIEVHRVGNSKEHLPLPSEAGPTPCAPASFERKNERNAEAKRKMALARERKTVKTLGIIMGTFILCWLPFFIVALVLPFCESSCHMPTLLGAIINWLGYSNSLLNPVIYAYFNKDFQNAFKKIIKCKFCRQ

[5] = target: 5-HT2A receptor (Homo sapiens, UniProt P28223); details: read-out: 5-HT2A Ki; cited from earlier work
[6] = system: OcINMT; details: cited from earlier work
[7] = system: mice; details: result in words; cited from earlier work
[8] = system: RmNMT; format: biochemical, Rhinella marina; details: 30 °C, 10 min
[9] = system: HsINMT; details: read-out: Km (HsINMT); cited from earlier work
[10] = radiolabeled compound injected into rabbits; result in words; cited from earlier work
[11] = standard in vitro assay, 1 h, 37 °C, mean ± SD, triplicate

5-HT2A receptor, sequence (P28223 whole entry): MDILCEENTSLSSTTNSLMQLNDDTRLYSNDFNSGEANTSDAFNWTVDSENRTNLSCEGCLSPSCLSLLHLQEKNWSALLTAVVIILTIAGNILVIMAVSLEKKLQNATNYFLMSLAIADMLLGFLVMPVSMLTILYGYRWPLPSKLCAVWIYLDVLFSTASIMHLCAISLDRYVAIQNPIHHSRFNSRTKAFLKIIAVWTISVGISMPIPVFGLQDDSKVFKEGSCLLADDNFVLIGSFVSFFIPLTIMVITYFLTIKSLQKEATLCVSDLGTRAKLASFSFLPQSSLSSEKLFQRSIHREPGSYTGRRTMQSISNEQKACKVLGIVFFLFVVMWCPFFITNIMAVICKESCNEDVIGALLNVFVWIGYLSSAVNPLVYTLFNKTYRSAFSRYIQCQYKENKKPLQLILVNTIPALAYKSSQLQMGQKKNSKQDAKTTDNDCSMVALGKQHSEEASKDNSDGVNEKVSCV

CN(C)CCc1c[nH]c2ccc(O)cc12 [Bufotenin, 5-hydroxy-DMT]
Metabolic stability during exposure to human liver microsome [1]: degraded faster than psilocin

CNCCc1c[nH]c2ccccc12 [N-Methyltryptamine]
Higher conversion of substrate by RmNMT compared with OcINMT [2]: 27 fold
RmNMT enzyme activity, product DMT [2, 11]: 10.44 ± 0.46
Activity as MAO-A substrate [3]: substrates of MAO-A

Cc1[nH]c2ccccc2c1CCN [2-Methyltryptamine]
5-HT1A Ki [4]: micromolar levels
Metabolic stability during exposure to human liver microsome [1]: showed greater stability

NCCc1c[nH]c2ccc(O)cc12 [5-Hydroxytryptamine (serotonin), 5-Hydroxytryptamine]
RmNMT enzyme activity, product Bufotenin [2]: 4.65 ± 0.112

COc1ccc2c(CCN(C)C)c[nH]c2c1 [6-methoxy-DMT]
Ki [5]: 7.3 µM

CN(C)CCc1c[nH]c2ccccc12 [DMT, N,N-dimethyltryptamine]
Ki [5]: 1.2 µM
Inhibition of OcINMT by its product ([6]; result in words): noncompetitively inhibited
Activity as MAO-A substrate [3]: could not be detected

CN(C)CCc1c[nH]c2cc(F)cc(O)c12 [6-fluoro-psilocin]
Ki [5]: 0.013 µM

NCCc1c[nH]c2cccc(O)c12 [4-Hydroxytryptamine]
Head-twitch response [7]: does not induce head-twitch response

NCCc1c[nH]c2ccccc12 [Tryptamine]
Higher conversion of substrate by RmNMT compared with OcINMT [2]: 18 fold
RmNMT enzyme activity, product N-Methyltryptamine [2, 11]: 3.51 ± 0.079
kcat (RmNMT) [8]: 0.00052 s⁻¹
Km ([6]; read-out: Km (OcINMT)): 270 µM
Km [9]: 2920 µM
Persistence in brain tissue [10]: disappeared within minutes
Activity as MAO-A substrate [3]: substrates of MAO-A
